Test results: patent publication US20260060973A1, “Ophthalmic Composition for Treating Non-Infectious Inflammatory Diseases” (VIVAVISION BIOTECH LTD., priority 2023, published 2026)
“Also recorded” adds a separate entry of the source.

Legend:
Solubility in water = format: physicochemical
Janus kinase 1 (JAK1) = Janus kinase 1 (JAK1) (Homo sapiens, UniProt P23458); experiment: Mechanism of action of VVN461; format: biochemical
Source text: (§1) JAK- or TYK-dependent cytokines are associated with non-infectious inflammatory diseases (e.g., uveitis or other ocular diseases), which is a potential therapeutic target for immune-mediated uveitis. VVN461 can target both Janus kinase 1 (JAK1) and tyrosine kinase 2 (TYK2), target JAK/TYK-dependent cytokines, and inhibit Janus kinase (JAK)/signal transducer and activation of transcription (STAT) pathway, and thus can be used for the treatment of non-infectious inflammatory diseases such as uveitis. […] These phosphorylated receptor residues that act as binding sites for STAT proteins are activated by the phosphorylation of the JAKs, so that STAT proteins are dimerized and translocated to the nucleus of the cell, thereby bind to specific DNA sites and regulate gene expression, which in turn leads to inflammation. In contrast, VVN461 of the present application can target JAK/TYK-dependent cytokines and inhibit the JAK/STAT pathway, and thus can be used for the treatment of non-infectious inflammatory diseases such as uveitis.

tyrosine kinase 2 (TYK2) = tyrosine kinase 2 (TYK2) (Homo sapiens, UniProt P29597); experiment: Mechanism of action of VVN461; format: biochemical
tyrosine kinase 2 (TYK2), sequence (P29597 whole entry, species assumed): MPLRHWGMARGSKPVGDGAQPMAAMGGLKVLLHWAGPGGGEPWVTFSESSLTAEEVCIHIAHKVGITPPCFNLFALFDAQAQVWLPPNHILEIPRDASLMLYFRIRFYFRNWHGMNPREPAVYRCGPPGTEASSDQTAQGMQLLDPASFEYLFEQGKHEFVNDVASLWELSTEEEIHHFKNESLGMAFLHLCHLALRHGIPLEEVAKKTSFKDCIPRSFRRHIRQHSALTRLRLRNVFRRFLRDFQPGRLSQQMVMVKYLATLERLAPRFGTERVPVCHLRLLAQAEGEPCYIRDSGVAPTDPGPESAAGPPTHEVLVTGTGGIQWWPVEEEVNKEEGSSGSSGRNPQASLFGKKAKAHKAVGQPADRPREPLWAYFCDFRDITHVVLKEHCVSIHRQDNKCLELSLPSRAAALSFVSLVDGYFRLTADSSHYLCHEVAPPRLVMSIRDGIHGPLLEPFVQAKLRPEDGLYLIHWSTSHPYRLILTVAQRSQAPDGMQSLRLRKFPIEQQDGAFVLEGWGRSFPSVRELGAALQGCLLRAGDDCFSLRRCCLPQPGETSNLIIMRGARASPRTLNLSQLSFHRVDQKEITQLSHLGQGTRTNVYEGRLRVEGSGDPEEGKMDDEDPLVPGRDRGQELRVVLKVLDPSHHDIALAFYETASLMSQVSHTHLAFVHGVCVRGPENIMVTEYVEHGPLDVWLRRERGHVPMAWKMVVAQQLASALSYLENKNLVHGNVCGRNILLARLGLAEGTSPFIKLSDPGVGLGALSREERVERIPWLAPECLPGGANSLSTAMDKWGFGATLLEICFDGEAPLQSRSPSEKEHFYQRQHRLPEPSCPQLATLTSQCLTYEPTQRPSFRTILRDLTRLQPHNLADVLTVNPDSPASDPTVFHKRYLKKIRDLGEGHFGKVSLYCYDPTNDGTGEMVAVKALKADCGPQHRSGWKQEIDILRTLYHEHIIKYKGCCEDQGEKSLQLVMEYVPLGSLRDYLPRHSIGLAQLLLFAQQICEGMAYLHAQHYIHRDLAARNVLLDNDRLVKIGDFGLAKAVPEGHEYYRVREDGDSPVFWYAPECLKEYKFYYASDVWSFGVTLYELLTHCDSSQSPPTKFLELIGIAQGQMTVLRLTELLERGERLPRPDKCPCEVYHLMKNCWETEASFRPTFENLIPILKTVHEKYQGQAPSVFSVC
Source text: as §1

Janus kinase 1 (JAK1), sequence (P23458 whole entry, species assumed): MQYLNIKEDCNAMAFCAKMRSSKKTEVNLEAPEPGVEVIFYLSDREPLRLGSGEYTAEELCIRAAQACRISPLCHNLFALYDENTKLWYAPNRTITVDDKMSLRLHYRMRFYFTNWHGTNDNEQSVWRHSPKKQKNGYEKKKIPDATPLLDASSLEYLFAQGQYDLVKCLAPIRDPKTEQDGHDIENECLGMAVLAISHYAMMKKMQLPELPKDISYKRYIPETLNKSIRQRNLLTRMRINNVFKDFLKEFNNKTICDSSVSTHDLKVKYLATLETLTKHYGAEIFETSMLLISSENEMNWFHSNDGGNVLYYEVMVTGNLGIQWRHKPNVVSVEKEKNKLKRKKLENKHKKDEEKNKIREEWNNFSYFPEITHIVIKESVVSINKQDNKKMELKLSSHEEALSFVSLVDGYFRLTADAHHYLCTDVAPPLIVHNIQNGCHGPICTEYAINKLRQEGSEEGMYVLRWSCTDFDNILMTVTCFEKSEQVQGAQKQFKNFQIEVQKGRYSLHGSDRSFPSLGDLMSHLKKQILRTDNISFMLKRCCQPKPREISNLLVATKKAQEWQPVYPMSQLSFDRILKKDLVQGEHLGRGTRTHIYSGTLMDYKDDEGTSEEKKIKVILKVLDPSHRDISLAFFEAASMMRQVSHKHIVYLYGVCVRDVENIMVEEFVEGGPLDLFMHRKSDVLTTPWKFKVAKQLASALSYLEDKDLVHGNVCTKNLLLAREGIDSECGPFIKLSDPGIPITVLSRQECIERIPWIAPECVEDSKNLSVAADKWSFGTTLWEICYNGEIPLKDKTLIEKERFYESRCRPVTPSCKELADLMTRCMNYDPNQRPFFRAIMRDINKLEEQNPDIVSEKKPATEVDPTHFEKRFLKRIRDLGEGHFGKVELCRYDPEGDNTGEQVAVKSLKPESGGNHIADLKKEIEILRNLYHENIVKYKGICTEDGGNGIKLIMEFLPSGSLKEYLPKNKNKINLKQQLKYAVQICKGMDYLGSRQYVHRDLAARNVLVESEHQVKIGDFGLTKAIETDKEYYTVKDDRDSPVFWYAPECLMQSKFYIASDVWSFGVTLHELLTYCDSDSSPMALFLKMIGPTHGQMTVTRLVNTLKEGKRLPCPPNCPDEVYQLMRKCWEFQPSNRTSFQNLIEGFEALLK

With `C[C@@H](O)c1nc2cnc3[nH]ccc3c2n1N1CCC(CC#N)CC1` [VVN461, (R)-2-(1-(2-(1-hydroxyethyl)imidazo[4,5-d]pyrrolo[2,3-b]pyridin-1(6H)-yl)piperidin-4-yl)acetonitrile] the solubility (Solubility in water) was “practically insoluble in water; also recorded: low water solubilities”, the JAK1 inhibition (Janus kinase 1 (JAK1)) was “dual JAK1/TYK2 inhibitor” and the TYK2 inhibition (tyrosine kinase 2 (TYK2)) was “dual JAK1/TYK2 inhibitor”.
